Measured values: patent US8252832B2, “Kinesin inhibitors as cancer therapeutics” (Novartis AG, priority 2007, dated 2012)
Where two headings read alike, the source gives them in different places.

Test system: panel of cell lines derived from hematological malignancies
Assay: Cell survival assay, CellTiter-Glo readout after 48 hours, hematological panel
Assay type: cell-based
Design: key to Differential: panel average log(GI50) minus cell line log(GI50); positive = more sensitive
Description: Compound IIa was tested against a panel of cell lines derived from hematological malignancies in a cell survival assay using CellTiter-Glo® as a readout after 48 hours in the presence of compound. Table 18 lists the type of hematological malignancy, the name of the sample, its GI50 (concentration needed to achieve 50% growth inhibition) value in the assay, the logarithm of the GI50 (log(GI50), and the relative sensitivity of each sample (Differential). The differential is calculated by subtracting the log(GI50) for each cell line from the average log(GI50) across the entire panel (0.236 in this case); a positive value indicates a sample that is more sensitive than average, whereas a negative value indicates a sample that is less sensitive than average.

Compound `CC(C)(C)[C@H](c1nc(-c2cc(F)ccc2F)cn1Cc1ccccc1)N(CC[C@H](N)CF)C(=O)CO` [Compound IIa] has a GI50 (Homo sapiens, MM1.S, 48 h, MM1-S (MM), read-out: GI50) of 0.24 nM, a GI50 (Homo sapiens, MM1.S, 48 h, MM1-S (MM), read-out: Log(GI50) (converted)) of 0.24 nM and a GI50 (Homo sapiens, MOLT-3, 48 h, MOLT-3 (ALL), read-out: GI50) of 0.34 nM. It also gave a GI50 (Homo sapiens, MOLT-3, 48 h, MOLT-3 (ALL), read-out: Log(GI50) (converted)) of 0.335 nM, a GI50 (Homo sapiens, MOLT-4, 48 h, MOLT-4 (ALL), read-out: GI50) of 0.33 nM and a GI50 (Homo sapiens, MOLT-4, 48 h, MOLT-4 (ALL), read-out: Log(GI50) (converted)) of 0.331 nM. For the same compound, the GI50 (Homo sapiens, MV4-11, 48 h, MV4, 11 (AML), read-out: GI50) was 0.08 nM, the GI50 (Homo sapiens, MV4-11, 48 h, MV4, 11 (AML), read-out: Log(GI50) (converted)) was 0.0769 nM and the GI50 (Homo sapiens, NALM-6, 48 h, NALM-6 (ALL), read-out: GI50) was 0.14 nM. The GI50 (Homo sapiens, NALM-6, 48 h, NALM-6 (ALL), read-out: Log(GI50) (converted)) was 0.135 nM, the GI50 (Homo sapiens, NCI-H929, 48 h, H929 (MM), read-out: GI50) was 0.34 nM and the GI50 (Homo sapiens, NCI-H929, 48 h, H929 (MM), read-out: Log(GI50) (converted)) was 0.335 nM. It also gave a GI50 (Homo sapiens, OPM-2, 48 h, OPM2 (MM), read-out: GI50) of 0.14 nM, a GI50 (Homo sapiens, OPM-2, 48 h, OPM2 (MM), read-out: Log(GI50) (converted)) of 0.135 nM and a GI50 (Homo sapiens, RPMI-8226, 48 h, RPMI8226 (MM), read-out: GI50) of 0.26 nM. For the same compound, the GI50 (Homo sapiens, RPMI-8226, 48 h, RPMI8226 (MM), read-out: Log(GI50) (converted)) was 0.262 nM, the GI50 (Homo sapiens, RS4-11, 48 h, RS4, 11 (ALL), read-out: GI50) was 0.1 nM and the GI50 (Homo sapiens, RS4-11, 48 h, RS4, 11 (ALL), read-out: Log(GI50) (converted)) was 0.1 nM. It also gave a GI50 (Homo sapiens, Ramos, 48 h, Ramos (NHL), read-out: GI50) of 0.16 nM, a GI50 (Homo sapiens, Ramos, 48 h, Ramos (NHL), read-out: Log(GI50) (converted)) of 0.16 nM and a GI50 (Homo sapiens, SET-2, 48 h, SET-2 (AML), read-out: GI50) of 0.34 nM. For the same compound, the GI50 (Homo sapiens, SET-2, 48 h, SET-2 (AML), read-out: Log(GI50) (converted)) was 0.34 nM, the GI50 (Homo sapiens, SU-DHL-1, 48 h, SuDHL-1 (NHL), read-out: GI50) was 10 nM and the GI50 (Homo sapiens, SU-DHL-1, 48 h, SuDHL-1 (NHL), read-out: Log(GI50) (converted)) was 10 nM. For the same compound, the GI50 (Homo sapiens, SU-DHL-4, 48 h, SuDHL-4 (NHL), read-out: GI50) was 0.45 nM, the GI50 (Homo sapiens, SU-DHL-4, 48 h, SuDHL-4 (NHL), read-out: Log(GI50) (converted)) was 0.447 nM and the GI50 (Homo sapiens, SU-DHL-6, 48 h, SuDHL-6 (NHL), read-out: GI50) was 0.16 nM. The GI50 (Homo sapiens, SU-DHL-6, 48 h, SuDHL-6 (NHL), read-out: Log(GI50) (converted)) was 0.16 nM, the GI50 (Homo sapiens, SUP-B15, 48 h, SUP-B15 (ALL), read-out: GI50) was 0.19 nM and the GI50 (Homo sapiens, SUP-B15, 48 h, SUP-B15 (ALL), read-out: Log(GI50) (converted)) was 0.19 nM. It also gave a GI50 (Homo sapiens, SUP-T1, 48 h, SUP-T1 (NHL), read-out: GI50) of 5.57 nM, a GI50 (Homo sapiens, SUP-T1, 48 h, SUP-T1 (NHL), read-out: Log(GI50) (converted)) of 5.57 nM and a GI50 (Homo sapiens, U-937, 48 h, U937 (NHL), read-out: GI50) of 0.2 nM. For the same compound, the GI50 (Homo sapiens, U-937, 48 h, U937 (NHL), read-out: Log(GI50) (converted)) was 0.2 nM, the Differential (HuT78 (NHL)) was 0.195 and the Differential (INA-6 (MM)) was 0.555. The GI50 (INA-6, 48 h, INA-6 (MM), read-out: GI50) was 0.12 nM, the GI50 (INA-6, 48 h, INA-6 (MM), read-out: Log(GI50) (converted)) was 0.12 nM and the Differential (K562 (CML)) was 0.314. It also gave a Differential (KM-H2 (HL)) of 0.266, a Differential (KMS11 (MM)) of −0.050 and a Differential (KMS11-Luc (MM)) of 0.172. For the same compound, the Differential (KMS12 (MM)) was 0.172, the Differential (KMS18-Luc (MM)) was −0.080 and the Differential (KMS26 (MM)) was 0.254. For the same compound, the GI50 (KMS-26, 48 h, KMS26 (MM), read-out: GI50) was 0.24 nM, the GI50 (KMS-26, 48 h, KMS26 (MM), read-out: Log(GI50) (converted)) was 0.24 nM and the Differential (Karpas-299 (NHL)) was 0.333. For the same compound, the Differential (Karpas-299-Luc (NHL)) was −1.671, the Differential (Karpas-422 (NHL)) was −1.077 and the Differential (Kasumi-1 (AML)) was −0.010. The Differential (L363 (MM)) was 0.520, the Differential (L428 (HL)) was −1.667 and the Differential (L-1236 (HL)) was −0.930. For the same compound, the GI50 (L-1236, 48 h, L-1236 (HL), read-out: GI50) was 3.67 nM, the GI50 (L-1236, 48 h, L-1236 (HL), read-out: Log(GI50) (converted)) was 3.66 nM and the Differential (LP1 (MM)) was 0.322. The Differential (MHH-CALL-2 (ALL)) was 0.136, the Differential (MHH-CALL-3 (ALL)) was 0.333 and the Differential (MHH-CALL-4 (ALL)) was −1.366. It also gave a GI50 (MHHCALL4, 48 h, MHH-CALL-4 (ALL), read-out: GI50) of 10 nM, a GI50 (MHHCALL4, 48 h, MHH-CALL-4 (ALL), read-out: Log(GI50) (converted)) of 10 nM and a Differential (MM1-S (MM)) of 0.254. It also gave a Differential (MM1-S-Luc (MM)) of 0.272, a Differential (MOLM13-Luc (AML)) of 0.279 and a Differential (MOLT-3 (ALL)) of 0.109. The Differential (MOLT-4 (ALL)) was 0.114, the Differential (MUTZ-5 (ALL)) was −1.366 and the Differential (MV4, 11 (AML)) was 0.747. It also gave a Differential (MV4, 11Luc (AML)) of 0.613, a Differential (NALM-6 (ALL)) of 0.504 and a Differential (NALM-19 (ALL)) of 0.355. For the same compound, the Differential (OPM2 (MM)) was 0.504, the Differential (REH (ALL)) was 0.379 and the Differential (RL (NHL)) was −1.667. The Differential (RPMI8226 (MM)) was 0.216, the Differential (RS4, 11 (ALL)) was 0.634 and the Differential (Ramos (NHL)) was 0.430. It also gave a Differential (SEM-Luc (ALL)) of 0.458, a Differential (SET-2 (AML)) of 0.102 and a Differential (SR (NHL)) of 0.591. The Differential (SUP-B15 (ALL)) was 0.355, the Differential (SUP-M2 (NHL)) was 0.379 and the GI50 (SUP-M2, 48 h, SUP-M2 (NHL), read-out: GI50) was 0.18 nM. It also gave a GI50 (SUP-M2, 48 h, SUP-M2 (NHL), read-out: Log(GI50) (converted)) of 0.18 nM, a Differential (SUP-T1 (NHL)) of −1.112 and a Differential (SuDHL-1 (NHL)) of −1.366. It also gave a Differential (SuDHL-4 (NHL)) of −0.016, a Differential (SuDHL-6 (NHL)) of 0.430 and a Differential (TANOUE (ALL)) of −1.366. It also gave a Differential (U937 (NHL)) of 0.333, a GI50 (UKE1, 48 h, UKE-1 (AML), read-out: GI50) of 0.18 nM and a GI50 (UKE1, 48 h, UKE-1 (AML), read-out: Log(GI50) (converted)) of 0.175 nM. For the same compound, the Differential (UKE-1 (AML)) was 0.391 and the Differential (YT (ALL)) was −1.366.
